Measured values reported in US20200323823A1, “METHODS FOR THE TREATMENT OF DEPRESSION” (Praxis Precision Medicines, Inc., priority 2018, published 2020).
Like-named read-outs stand apart in the source and are kept apart here.

Assays:
[1] = Food Effect Cohort (Cohort 4), single 30 mg dose fasted vs high-fat, high calorie meal, plasma PK; conditions: human, po, t 1/2, Cohort 4, single 30 mg oral, n = 10, Mean (SD)
Protocol: (§2) The Day 1 dose was administered after a minimum of 10 hour fasting. No additional fluid intake was allowed until 1 hour after drug administration. A standard meal was given at least 4 hours post-dose. The Day 5 dose was administered following a high-fat, high calorie meal. Participants remained at the clinical site for a total of 8 days to complete PK sampling after the second dose.
(§3) Pharmacokinetic variables (including but not limited to Cmax, Tmax and AUC(0-last)), were calculated using non-compartmental analysis.
(§4) Urine (Cohort 4): No urine analysis was conducted in Cohort 4.

[2] = Safety/tolerability in MDD patients, Part A; assay type: in vivo, human; conditions: 80 mg Cohort, compared to the 45 mg Cohort
Protocol: (§1) In Part A, participants were administered daily doses of Compound 1 (45 mg Cohort and 80 mg Cohort) at 4 PM on Day 1 and qHS on all other study days for 7 days inpatient followed by 7 days outpatient (with subsequent Cohorts receiving up to 120 mg qHS). Participants checked into the clinic on Day 1. During this period the following assessments were performed: adverse event assessments, vital signs, physical examinations, blood and urine samples for safety assessments, ECGs, C-SSRS assessments, blood samples for PK, and efficacy assessments (HAM-D, MADRS, HAM-A, CGI [CGI-S and CGI-I], PSQI, and SDQ). Baseline assessments occurred on Day 1 prior to administration of study drug. On Day 8, prior to discharge, participants were supplied with sufficient Compound 1 to complete 7 days of dosing.
Adverse events (AEs) will be monitored throughout the duration of the study.

[3] = in vivo, po
Protocol: as §2, §3, §4

[4] = tested on: patients with severe major depressive disorder (MDD); experiment: Open-label study in severe MDD, Part A, HAM-D efficacy; assay type: in vivo, human
Protocol: The study is an open-label, study comprised of two dosing periods, Part A and Part B, during which patients were treated with an oral suspension of Compound 1. Part A was an open-label assessment of two dose levels of Compound 1 (45 mg qHS Cohort 1 and 80 mg qHS Cohort, i.e., once daily administration at bedtime) administered for 7 days inpatient followed by 7 days outpatient. PRAX-114 was administered at 4 PM on Day 1 in order to collect post-dosing PK samples that could not be collected with qHS dosing.
as §1
Patients were administered daily doses of Compound 1 for 7 days inpatient followed by 7 days outpatient.
In the 45 mg Cohort, patients were administered once daily dose of 45 mg of Compound 1 at bedtime for 7 days inpatient followed by once daily dose of 45 mg of Compound 1 at bedtime for 7 days outpatient.
In the 80 mg Cohort, patients were administered once daily dose of 80 mg of Compound 1 at bedtime for 7 days inpatient followed by once daily dose of 80 mg of Compound 1 at bedtime for 7 days outpatient.
In Part A, HAM-D, MADRS, HAM-A, CGI-S, and CGI-I values were collected in the morning of Days 1, 2, 3, 4, 5, 6, 7, 8, 15, 21 and 28. PSQI and SDQ values will be collected on Days 1, 8, 15, 21 and 28. Part B: In Part B, HAM-D, MADRS, HAM-A, CGI-S, CGI-I, PSQI and SDQ values will be collected on the days described for Part A.
HAM-D Response was defined as a reduction from baseline of ≥50% in total HAM-D score. HAM-D remission was defined as a total HAM-D score of ≤7.
For both parts of the clinical trial, the HAM-D total score and change from baseline values will be summarized by treatment group and time point. In addition, the change from baseline in HAM-D total score will also be analyzed using paired t-tests or similar methods. The null hypothesis of this test is that the mean difference in HAM-D total score between paired observations (i.e., pre- and post-treatment) is zero. Similar analysis methods will be used for all secondary and exploratory efficacy variables.

[5] = human, in vivo
Protocol: (§5) Healthy subjects aged 18 to 55 years were treated with an oral suspension of Compound 1 to study the safety, tolerability, pharmacokinetics and pharmacodynamics of Compound 1 in healthy subjects.
(§6) The study was a randomized, double-blind, placebo-controlled multiple escalating dose study comprised of 3 cohorts that each received an oral suspension. Each cohort consisted of two groups: one group treated with Compound 1 and another treated with placebo. In each cohort, the ratio of Compound 1-treated subjects to placebo-treated subjects was 3:1.
(§7) The Compound 1-treated subjects of Cohort 1 were treated with 15.0 mg of Compound 1 once per day (QD). The Compound 1-treated subjects of Cohort 2 were treated with 30.0 mg of Compound 1 QD. The Compound 1-treated subjects of Cohort 3 were treated with 60.0 mg of Compound 1 QD.
(§8) Patients in each cohort were treated with Compound 1 for 14 consecutive days, unless dosing was halted by the Safety Review Committee (SRC). The dosing of subjects in each of the cohorts was staggered with the decision to dose escalate based on SRC review of a minimum of 14 days of observation of safety and tolerability data and review of the available plasma PK data from the preceding cohort(s). Thus, dose escalation was predicated on tolerability of the prior cohorts.
(§9) Compound 1 was administered under fasted conditions (no food or drink, except water, for at least 10 hours prior to dosing). Immediately after administration of Compound 1, the subject was be administered 240 mL water. No additional fluid intake was allowed until 1 hour after Compound 1 administration.
(§10) Cohort 1 subjects received a single 15.0 mg dose of a Compound 1 suspension on the morning of Days 1-14. Cohort 2 subjects received a single 30.0 mg dose of a Compound 1 suspension on the morning of Days 1-14. Cohort 3 subjects received a single 60.0 mg dose of a Compound 1 suspension on the morning of Days 1-14. For all cohorts, the last treatment was administered on the morning of Day 14.
(§11) Data were obtained from the blood plasma samples collected from each cohort according to the schedule provided.
(§12) Plasma samples were analyzed to determine Compound 1 concentrations using a validated assay method. Pharmacokinetic variables (including but not limited to Cmax, Tmax and AUC(0-last)), were calculated using non-compartmental analysis. PK parameters for Compound 1 were derived from the plasma concentration data using non-compartmental analysis with Phoenix™ WinNonlin® v 8.0 (Pharsight Corporation, USA).
(§13) For each cohort, blood samples were collected on Days 1, 2, 3, 4, 5, 6 and 14 at the following time points: Day 1 at pre-dose (0 hour), 0.25, 0.5, 0.75, 1, 1.5, 2, 2.5, 3, 4, 6, 8, 12, 16 h post-dose; Day 2 at pre-dose (24 h), Day 3 at pre-dose (48 h), Day 4 at pre-dose (72 h), Day 5 at pre-dose (96 h), Day 6 at pre-dose (120 h); Day 14 at pre-dose 0.25, 0.5, 0.75, 1, 1.5, 2, 2.5, 3, 4, 6, 8, 12, 16, 24, 36, 48, and 72 hours. Trough level blood samples were collected on Days 2, 3, 4, 5, 6 and 14, prior to the morning dose administrations.
(§14) Descriptive statistics were calculated for plasma and urine PK parameter and concentration data, and summarized by study day and time point. Arithmetic means, coefficient of variation (CV), standard deviation, median, minimum, and maximum values, and number of observations were calculated for all PK parameters and trough concentration data. Except for Tmax, the geometric mean, geometric standard deviation, and geometric CV were provided for all PK parameter and concentration data.

[6] = Randomized, double-blind, placebo-controlled multiple escalating dose study, plasma PK of Compound 1 oral suspension (Cohorts 1-3); conditions: for Vd/F: Vz/F
Protocol: as §5, §6, §7, §8, §9, §10, §11, §12, §13, §14

clinical = conditions: human, in vivo; for AUC(0-inf): AUCinf
Protocol: as §5, §6, §7, §8, §9, §10, §11, §12, §13, §14

[7] = Cohort 1, 15.0 mg QD oral, Day 14, Mean
[8] = Cohort 2, 30.0 mg QD oral, Day 14, Mean

COC[C@@]1(O)CC[C@@]2(C)[C@@H](CC[C@@H]3[C@@H]2CC[C@]2(C)[C@@H](C(=O)Cn4ccnc4)CC[C@@H]32)C1 [Compound 1, 3α-Hydroxy-3β-methoxymethyl-21-(1′-imidazolyl)-5α-pregnan-20-one]
half-life ([1]; Fasted (Day 1)): 11.2 h
half-life ([1]; Fed (Day 1 as printed)): 11.3 h
tolerability / Adverse Event profile [2]: well tolerated with no change in Adverse Event profile
Tmax ([3]; human): 1.00 (0.75, 1.77) h
Cmax higher under fasting conditions compared to fed conditions ([3]; human, 30 mg): 1.5-1.6 times
t½, fasted versus fed conditions [3]: similar
least squares Mean Change from Baseline in HAM-D score ([4]; 45 mg Cohort, Day 7): −17.8
least squares Mean Change from Baseline in HAM-D score ([4]; 45 mg Cohort, Day 15): −13.2
patients who met the HAM-D Response or Remission criterion ([4]; 45 mg Cohort, once daily at bedtime, Day 7): 11 of the 13
patients who met the HAM-D Response or Remission criteria ([4]; 45 mg Cohort, once daily at bedtime, Day 15): 8 of the 13
least squares Mean Change from Baseline in HAM-D score ([4]; 80 mg Cohort, Day 7): −20.0
least squares Mean Change from Baseline in HAM-D score ([4]; 80 mg Cohort, Day 15): −16.0
patients who met the HAM-D Response or Remission criteria ([4]; 80 mg Cohort, once daily at bedtime, Day 15): 6 of the 7
Efficacy by background antidepressant ([4]; as monotherapy and in combination with another antidepressant): Efficacy was observed
symptoms of moderate to severe MDD ([4]; daily dose of 45 mg or 80 mg): exhibited reduced symptoms of moderate to severe MDD
dose dependence of Cavg, AUCss and AUCinf [5]: proportional increase
dose dependence of Cmax and AUC parameters at steady state ([5]; po): approximate proportional increase
steady state clearance ([5]; po): approximately 31 L/h
accumulation factor of the dosing interval (ratio of AUCDay 14/AUCDay 1) ([5]; po, 15 mg): approximately 1.25
Cmax ([5]; po, 30 mg): 156.00 ng/mL
accumulation factor of the dosing interval (ratio of AUCDay 14/AUCDay 1) ([5]; po, 30 mg): approximately 1.25
Tmax ([5]; po, 60 mg): 1.00 h
accumulation factor of the dosing interval (ratio of AUCDay 14/AUCDay 1) ([5]; po, 60 mg): 0.89
CLss/F ([6]; Cohort 1, 15.0 mg QD oral, Day 14, Geo Mean): 30.497 L/h
CLss/F [6, 7]: 31.415 L/h
t1/2 [6, 7]: 14.772 h
CLss/F ([6]; Cohort 1, 15.0 mg QD oral, Day 14, Median): 30.41 L/h
CLss/F ([6]; Cohort 2, 30.0 mg QD oral, Day 14, Geo Mean): 30.178 L/h
CLss/F [6, 8]: 30.949 L/h
t1/2 [6, 8]: 12.701 h
CLss/F ([6]; Cohort 2, 30.0 mg QD oral, Day 14, Median): 30.12 L/h
CLss/F ([6]; Cohort 3, 60.0 mg QD oral, Day 14, Geo Mean): 30.398 L/h
CLss/F ([6]; Cohort 3, 60.0 mg QD oral, Day 14, Mean): 32.142 L/h
CLss/F ([6]; Cohort 3, 60.0 mg QD oral, Day 14, Median): 28.45 L/h
Vd/F ([6]; human, plasma, po, 15 mg, Cohort 1, 15.0 mg QD oral, Day 14, Geo Mean): 643 L
Vd/F ([6]; human, plasma, po, 15 mg, Cohort 1, 15.0 mg QD oral, Day 14, Mean): 655 L
Vd/F ([6]; human, plasma, po, 15 mg, Cohort 1, 15.0 mg QD oral, Day 14, Median): 657 L
half-life ([6]; human, plasma, po, 15 mg, t1/2, Cohort 1, 15.0 mg QD oral, Day 14, Geo Mean): 14.6 h
half-life ([6]; human, plasma, po, 15 mg, t1/2, Cohort 1, 15.0 mg QD oral, Day 14, Mean): 14.8 ± 2.26 h
half-life ([6]; human, plasma, po, 15 mg, t1/2, Cohort 1, 15.0 mg QD oral, Day 14, Median): 15.3 h
Cmax ([6]; human, plasma, po, 30 mg, Cmax, Cohort 2, 30.0 mg QD oral, Day 1, Geometric Mean): 120 ng/mL
Vd/F ([6]; human, plasma, po, 30 mg, Cohort 2, 30.0 mg QD oral, Day 14, Geo Mean): 551 L
Vd/F ([6]; human, plasma, po, 30 mg, Cohort 2, 30.0 mg QD oral, Day 14, Mean): 570 L
Vd/F ([6]; human, plasma, po, 30 mg, Cohort 2, 30.0 mg QD oral, Day 14, Median): 514 L
half-life ([6]; human, plasma, po, 30 mg, t1/2, Cohort 2, 30.0 mg QD oral, Day 14, Geo Mean): 12.6 h
half-life ([6]; human, plasma, po, 30 mg, t1/2, Cohort 2, 30.0 mg QD oral, Day 14, Mean): 12.7 ± 1.23 h
half-life ([6]; human, plasma, po, 30 mg, t1/2, Cohort 2, 30.0 mg QD oral, Day 14, Median): 12.9 h
Vd/F ([6]; human, plasma, po, 60 mg, Cohort 3, 60.0 mg QD oral, Day 14, Geo Mean): 533 L
Vd/F ([6]; human, plasma, po, 60 mg, Cohort 3, 60.0 mg QD oral, Day 14, Mean): 574 L
Vd/F ([6]; human, plasma, po, 60 mg, Cohort 3, 60.0 mg QD oral, Day 14, Median): 531 L
half-life ([6]; human, plasma, po, 60 mg, t1/2, Cohort 3, 60.0 mg QD oral, Day 14, Geo Mean): 12.2 h
half-life ([6]; human, plasma, po, 60 mg, t1/2, Cohort 3, 60.0 mg QD oral, Day 14, Mean): 12.2 ± 1.32 h
half-life ([6]; human, plasma, po, 60 mg, t1/2, Cohort 3, 60.0 mg QD oral, Day 14, Median): 12.4 h
half-life ([6]; human, plasma, po, mean t1/2, steady state, across Cohorts 1-3 (15.0-60.0 mg QD oral)): 12.2 to 14.8 h
Tmax (clinical): ≤ 2 h
AUC (clinical; po, 15 mg, AUC0-tau): 362 ng·h/mL
AUC(0-inf) (clinical; po, 15 mg): 600 ng·h/mL
AUC (clinical; po, 15 mg, AUCss): 492 ng·h/mL
Cmax (clinical; po, 15 mg): 56 ng/mL
Cmax (clinical; po, 15 mg, ss): 65 ng/mL
Tmax (clinical; po, 15 mg): 1.03 h
Tmax (clinical; po, 15 mg, ss): 1.07 h
AUC (clinical; po, 30 mg, AUC0-tau): 842 ng·h/mL
AUC(0-inf) (clinical; po, 30 mg): 1230 ng·h/mL
AUC (clinical; po, 30 mg, AUCss): 1020 ng·h/mL
Cmax (clinical; po, 30 mg): 133 ng/mL
Cmax (clinical; po, 30 mg, ss): 164 ng/mL
Tmax (clinical; po, 30 mg, ss): 0.964 h
AUC (clinical; po, 60 mg, AUC0-tau): 2340 ng·h/mL
AUC(0-inf) (clinical; po, 60 mg): 2370 ng·h/mL
AUC (clinical; po, 60 mg, AUCss): 2080 ng·h/mL
Cmax (clinical; po, 60 mg): 364 ng/mL
Cmax (clinical; po, 60 mg, ss): 355 ng/mL
Tmax (clinical; po, 60 mg): 1.14 h
Tmax (clinical; po, 60 mg, ss): 0.969 h
